Results: ChEMBL document CHEMBL1201862, “PubChem BioAssay data set” (2004)
Activity calls are given as the source filed them.

Assays:
[1] = biological target: Heat shock protein HSP 90-alpha (Homo sapiens, UniProt P07900); type: functional, organism-based
Fatty acid synthase [2] = biological target: T1, Fatty acid synthase (Homo sapiens, UniProt P49327); test: inhibition of human FAS-TE enzyme activity – biochemical, endpoint fluorescence intensity, uHTS hits, dose response (AID 624327); type: functional;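 note: fluorescence from hydrolysis of an O-methyl fluorescein acyl ester substrate by the enzyme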
[3] = Trypanosoma cruzi growth suppression in host cells – NIH3T3 host cells, beta-gal luminescence, confirmation (AID 2044); type: functional, cell-based;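 note: intracellular parasites grown in NIH/3T3 mouse fibroblasts as host cells; luminescent beta-galactosidase reporter signal from transgenic T. cruzi replicating inside host cells; inhibitors lower the luminescence signal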
Fatty acid synthase [4] = biological target: T1, Fatty acid synthase; test: inhibition of human FAS-TE enzyme activity – biochemical, kinetic fluorescence intensity, dose response (AID 624326); type: functional;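 note: rate of fluorescence rise from hydrolysis of a fluorogenic O-methyl fluorescein ester substrate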
[5] = biological target: T2, Heat shock factor protein 1 (Mus musculus, UniProt P38532); test: enhancement of HSF1-driven luciferase signal – cell-based, NIH3T3, luminescence, dose retest, confirmation (AID 435004); type: functional;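 note: stress induced by proteasome inhibitor MG132 added 30 min after compound; luciferase reporter driven by HSF1 response element in NIH3T3 cells; actives raise luminescence as potentiators of the MG132 stress response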
T2 sequence (P38532 whole entry): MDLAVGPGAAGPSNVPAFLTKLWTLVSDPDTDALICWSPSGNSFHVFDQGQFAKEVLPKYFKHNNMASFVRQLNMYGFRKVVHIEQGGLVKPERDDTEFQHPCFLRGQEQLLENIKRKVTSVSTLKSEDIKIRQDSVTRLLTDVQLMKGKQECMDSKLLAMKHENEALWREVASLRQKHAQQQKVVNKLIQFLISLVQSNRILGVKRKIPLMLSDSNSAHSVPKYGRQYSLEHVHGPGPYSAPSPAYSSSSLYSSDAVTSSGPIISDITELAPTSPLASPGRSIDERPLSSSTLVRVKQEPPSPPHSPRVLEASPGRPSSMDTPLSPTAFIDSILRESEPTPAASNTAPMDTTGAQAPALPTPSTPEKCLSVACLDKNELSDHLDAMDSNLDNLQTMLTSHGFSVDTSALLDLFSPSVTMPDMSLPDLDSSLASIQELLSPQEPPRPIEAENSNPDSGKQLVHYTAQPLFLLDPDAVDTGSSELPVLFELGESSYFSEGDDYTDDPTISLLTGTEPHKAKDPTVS

[6] = NIH3T3 cell viability loss – ATP luminescence, mouse fibroblasts, counter-screen, dose response (AID 2010); type: functional, cell-based;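 note: cells exposed to compound for about 90 hours before reading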
[7] = luciferase reporter signal suppression in cells – H4 neuroglioma cells, luminescence, dose response (AID 1990); type: functional, cell-based
[8] = alpha-synuclein stem-loop luciferase translation blockers – H4 neuroglioma cells, luminescence, confirmation (AID 1988); type: functional, cell-based
[9] = Luminescence Cell-Based Dose Response HTS to Identify Inhibitors of 5'UTR Stem-Loop Driven Prion Protein mRNA Translation in H4 Neuroglioblastoma Cells. [Related pubchem assays: 1827 (Project Summary), 1813 (Primary HTS)]; type: functional
Cytochrome P450 3A4 = Cytochrome P450 3A4 (Homo sapiens, UniProt P08684);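 note: CYP3A4 tested as one member of a cytochrome P450 panel screen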
Streptococcus = test: GAS UMAA2166 growth inhibition – luminescence, BacTiterGlo, counter-screen for streptokinase expression inhibitor project, dose response (AID 1915); type: functional, organism-based;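 note: potency for reduction of bacterial viability or growth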
[10] = microbe, parasite or virus in culture; type: functional; conditions: Mycobacterium tuberculosis
Streptokinase A = biological target: T3, Streptokinase A (Streptococcus pyogenes serotype M1, UniProt P10520); test: viability-normalized secreted streptokinase activity reduction – plasminogen activation absorbance, OD405, dose response (AID 1914); type: functional, Streptococcus pyogenes M1 GAS;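 note: secreted streptokinase activity via plasminogen activation per viability signal from cell pellet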
T3 sequence (P10520 whole entry): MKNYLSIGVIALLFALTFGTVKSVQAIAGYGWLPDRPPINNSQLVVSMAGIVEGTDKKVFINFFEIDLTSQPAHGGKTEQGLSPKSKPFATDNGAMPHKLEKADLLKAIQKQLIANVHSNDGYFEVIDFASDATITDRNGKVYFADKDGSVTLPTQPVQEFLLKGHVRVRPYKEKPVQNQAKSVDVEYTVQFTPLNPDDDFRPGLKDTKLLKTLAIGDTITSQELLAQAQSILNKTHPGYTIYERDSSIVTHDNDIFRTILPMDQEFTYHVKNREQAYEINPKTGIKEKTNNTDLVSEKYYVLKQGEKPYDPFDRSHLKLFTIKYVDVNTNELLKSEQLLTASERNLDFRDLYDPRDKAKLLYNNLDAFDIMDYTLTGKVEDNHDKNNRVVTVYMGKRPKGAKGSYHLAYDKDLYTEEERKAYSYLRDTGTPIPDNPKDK

[11] = test system: Streptococcus sp. 'group A'; test: Streptococcus pyogenes SK(-)GAS viability under kanamycin – luminescence, BacTiterGlo, confirmation, counter-screen for streptokinase expression inhibitor project, dose response (AID 1900); type: functional, organism-based
INS1 = test: INS-1E survival protection against cytokine death – cell-based, luminescence, retest, dose response (AID 449756); type: functional; conditions: Rattus norvegicus;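 note: cell death triggered by IL-1 beta plus TNF-alpha plus IFN-gamma mixture; protective hits raise ATP signal compared with cytokine alone wells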
[12] = intracellular Trypanosoma cruzi inhibitors in host cells – cell-based, plate reader, cherry-pick samples, set 3, dose response (AID 651818); type: functional;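 note: compounds incubated with infected cells for about four days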
[13] = P. falciparum Dd2 growth inhibitors, dose response, SYBR Green, cherry-picked samples (AID 1159567); type: functional, cell-based
[14] = toxicity to human hepatoma HepG2 cells – cell-based, cherry-picked samples, cytotoxicity control, dose response (AID 1159577); type: functional

T1 sequence (P49327 whole entry): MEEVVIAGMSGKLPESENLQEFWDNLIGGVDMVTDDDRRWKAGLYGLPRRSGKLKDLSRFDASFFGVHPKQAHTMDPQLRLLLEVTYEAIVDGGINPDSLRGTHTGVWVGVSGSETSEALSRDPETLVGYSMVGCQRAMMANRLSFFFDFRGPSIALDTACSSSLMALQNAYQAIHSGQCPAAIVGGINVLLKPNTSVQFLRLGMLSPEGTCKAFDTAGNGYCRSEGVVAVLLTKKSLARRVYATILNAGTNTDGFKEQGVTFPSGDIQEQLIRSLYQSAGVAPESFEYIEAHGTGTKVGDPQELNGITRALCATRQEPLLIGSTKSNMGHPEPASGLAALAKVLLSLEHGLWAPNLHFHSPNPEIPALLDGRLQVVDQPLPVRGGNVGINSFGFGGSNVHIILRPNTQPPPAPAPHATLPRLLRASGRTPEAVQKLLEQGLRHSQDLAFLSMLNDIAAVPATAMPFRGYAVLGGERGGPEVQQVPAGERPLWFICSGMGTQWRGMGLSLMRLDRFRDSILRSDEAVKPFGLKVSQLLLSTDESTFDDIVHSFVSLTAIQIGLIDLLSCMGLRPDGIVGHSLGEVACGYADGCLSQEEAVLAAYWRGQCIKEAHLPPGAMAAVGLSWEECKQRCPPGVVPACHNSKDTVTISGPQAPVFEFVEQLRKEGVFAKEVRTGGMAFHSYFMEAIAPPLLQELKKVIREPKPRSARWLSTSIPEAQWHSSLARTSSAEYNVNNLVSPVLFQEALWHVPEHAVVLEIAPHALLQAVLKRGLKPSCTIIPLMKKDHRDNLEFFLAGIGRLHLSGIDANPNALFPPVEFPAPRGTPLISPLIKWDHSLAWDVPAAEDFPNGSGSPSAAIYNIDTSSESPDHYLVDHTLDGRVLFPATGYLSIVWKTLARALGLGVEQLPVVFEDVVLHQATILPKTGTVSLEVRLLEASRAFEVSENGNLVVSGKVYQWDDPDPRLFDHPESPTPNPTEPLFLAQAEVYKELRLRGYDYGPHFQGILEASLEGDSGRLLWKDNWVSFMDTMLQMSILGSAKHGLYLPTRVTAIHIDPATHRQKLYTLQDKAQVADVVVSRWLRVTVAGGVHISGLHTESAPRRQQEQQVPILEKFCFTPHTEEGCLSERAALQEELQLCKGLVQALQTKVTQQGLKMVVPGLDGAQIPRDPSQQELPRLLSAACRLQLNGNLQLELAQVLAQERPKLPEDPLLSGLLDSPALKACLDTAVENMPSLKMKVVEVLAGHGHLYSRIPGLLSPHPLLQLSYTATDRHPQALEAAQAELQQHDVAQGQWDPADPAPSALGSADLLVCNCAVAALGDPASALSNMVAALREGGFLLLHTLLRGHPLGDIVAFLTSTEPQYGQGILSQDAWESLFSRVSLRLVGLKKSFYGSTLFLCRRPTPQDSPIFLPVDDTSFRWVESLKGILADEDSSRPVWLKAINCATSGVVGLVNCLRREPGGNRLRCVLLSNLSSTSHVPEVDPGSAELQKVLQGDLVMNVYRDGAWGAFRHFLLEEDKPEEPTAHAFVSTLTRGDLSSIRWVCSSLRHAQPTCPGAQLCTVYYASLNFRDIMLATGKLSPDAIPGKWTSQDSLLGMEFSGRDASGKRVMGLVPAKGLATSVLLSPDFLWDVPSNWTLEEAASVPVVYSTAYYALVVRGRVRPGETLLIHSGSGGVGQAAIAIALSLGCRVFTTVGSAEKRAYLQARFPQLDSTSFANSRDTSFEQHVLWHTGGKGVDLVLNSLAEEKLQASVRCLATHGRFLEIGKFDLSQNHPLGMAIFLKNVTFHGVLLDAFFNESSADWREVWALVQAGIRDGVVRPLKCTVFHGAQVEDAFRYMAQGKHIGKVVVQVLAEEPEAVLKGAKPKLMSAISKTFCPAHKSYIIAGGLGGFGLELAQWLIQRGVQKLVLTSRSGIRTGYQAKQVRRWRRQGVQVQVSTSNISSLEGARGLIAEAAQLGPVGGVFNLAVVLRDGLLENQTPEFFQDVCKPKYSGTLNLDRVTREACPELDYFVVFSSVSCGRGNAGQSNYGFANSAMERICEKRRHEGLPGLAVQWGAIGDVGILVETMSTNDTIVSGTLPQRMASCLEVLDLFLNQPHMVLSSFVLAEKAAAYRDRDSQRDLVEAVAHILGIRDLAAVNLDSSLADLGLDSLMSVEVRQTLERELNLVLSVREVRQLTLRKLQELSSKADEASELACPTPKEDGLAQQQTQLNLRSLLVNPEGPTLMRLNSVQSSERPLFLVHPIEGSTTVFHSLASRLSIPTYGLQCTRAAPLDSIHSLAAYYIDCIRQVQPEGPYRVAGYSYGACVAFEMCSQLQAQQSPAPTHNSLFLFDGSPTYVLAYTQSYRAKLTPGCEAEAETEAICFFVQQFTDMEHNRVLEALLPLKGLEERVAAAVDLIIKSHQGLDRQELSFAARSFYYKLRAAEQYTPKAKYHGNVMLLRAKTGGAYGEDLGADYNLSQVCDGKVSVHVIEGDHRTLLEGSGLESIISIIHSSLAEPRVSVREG
Cytochrome P450 3A4, sequence (P08684 whole entry): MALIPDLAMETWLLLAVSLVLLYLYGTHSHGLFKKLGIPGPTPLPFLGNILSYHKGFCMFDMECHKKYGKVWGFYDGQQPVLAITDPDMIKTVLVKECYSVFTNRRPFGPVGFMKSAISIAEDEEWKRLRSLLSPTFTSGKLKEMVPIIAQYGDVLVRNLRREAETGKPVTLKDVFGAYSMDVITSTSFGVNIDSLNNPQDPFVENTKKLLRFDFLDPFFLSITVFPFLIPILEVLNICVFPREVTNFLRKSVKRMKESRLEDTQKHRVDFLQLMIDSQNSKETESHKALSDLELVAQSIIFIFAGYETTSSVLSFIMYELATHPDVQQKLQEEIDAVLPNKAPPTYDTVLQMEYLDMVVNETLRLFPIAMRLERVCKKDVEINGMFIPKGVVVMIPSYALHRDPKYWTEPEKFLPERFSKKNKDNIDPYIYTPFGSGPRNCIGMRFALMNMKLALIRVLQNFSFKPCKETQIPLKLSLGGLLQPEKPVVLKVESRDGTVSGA

## CCn1c(CNc2ccc(Cl)cc2)nnc1SCc1ccc(C)cc1
[1]
  AC50: 8.07 µM (active)

## Cc1ccc(N2C(=O)C3CC(c4ccccc4)=C4C5C=CC(C6C(=O)N(c7ccc(C)cc7C)C(=O)C56)C4C3C2=O)c(C)c1 (stereo unspecified)
Fatty acid synthase [2]
  IC50: 17.4 µM (active)
[3]
  EC50: 2.49 µM (active)
Fatty acid synthase [4]
  IC50: 10.3 µM (active)
[5]
  EC50: > 260 µM (inactive)
[6]
  EC50: > 60 µM (not active)

## Cc1cc(-c2cc(-c3ccc(Cl)cc3)nc(N)c2C#N)co1
[7]
  EC50: 20.9 µM (active)
[8]
  EC50: > 120 µM (not active)
[9]
  EC50: > 120 µM (not active)
Cytochrome P450 3A4
  AC50: 17.8 µM (inconclusive)
[1]
  AC50: 6.87 µM (active)

## Cc1ccc(Cn2c(C(CO)Nc3nc(-c4ccc(F)cc4)cs3)nc3ccccc32)cc1 (stereo unspecified)
Streptococcus
  EC50: 5.23 µM (active)
[10]
  CC50: 28.5 µM (active)
Streptokinase A
  EC50: > 150 µM (not active)
[11]
  EC50: 5.27 µM (active)

## O=C(NNc1c(Cl)cc(Cl)cc1Cl)c1cccc([N+](=O)[O-])c1
Fatty acid synthase [2]
  IC50: 10.7 µM (active)
Fatty acid synthase [4]
  IC50: 6.77 µM (active)
INS1
  AC50: 3.93 µM (active)

## C[C@H](CO)N1C[C@H](C)[C@@H](CN(C)S(=O)(=O)c2ccc(F)cc2)Oc2c(NC(=O)NC3CCCCC3)cccc2C1=O
[12]
  AC50: 7.84 µM (active)

## Cc1ccc(S(=O)(=O)Nc2ccc3c(c2)C(=O)N([C@@H](C)CO)C[C@H](C)[C@H](CN(C)Cc2ccc(-c4ccccc4)cc2)O3)cc1
[12]
  AC50: 5.6 µM (active)

## C[C@@H]1CCCCO[C@@H](CN(C)Cc2ccc(C(=O)Nc3ccccc3N)cc2)[C@@H](C)CN([C@H](C)CO)C(=O)c2cc(NS(=O)(=O)c3cccs3)ccc2O1
[12]
  AC50: 2.39 µM (active)

## C[C@H]1CN([C@@H](C)CO)C(=O)Cc2cc(NS(=O)(=O)c3ccc(Cl)cc3)ccc2O[C@@H]1CN(C)Cc1ccc(Oc2ccccc2)cc1
[12]
  AC50: 3.33 µM (active)

## C[C@@H]1CN([C@H](C)CO)C(=O)Cc2cc(NS(=O)(=O)c3ccc(Cl)cc3)ccc2O[C@H]1CN(C)Cc1ccccc1
[12]
  AC50: 3.09 µM (active)

## O=C(CC(=O)N/N=C\c1ccc([N+](=O)[O-])cc1)NCCc1ccccc1
Fatty acid synthase [2]
  IC50: 23.6 µM (inactive)
Fatty acid synthase [4]
  IC50: 20.3 µM (inactive)

## Cc1ccccc1-c1ccc2c(c1)O[C@@H](CN(C)Cc1ccncc1)[C@H](C)CN([C@H](C)CO)S2(=O)=O
[13]
  AC50: 3.9 µM (active)
[14]
  AC50: > 39 µM (inactive)

## COc1ccc2c3c(n(C)c2c1)[C@@H](CO)N(C(=O)Nc1ccc(F)cc1)CC31CN(Cc2ccccc2F)C1
[13]
  AC50: 5.53 µM (active)
[14]
  AC50: 24.2 µM (active)

## CCCc1cn(CC[C@H]2CC[C@H](NS(=O)(=O)c3ccc(-c4ccccc4)cc3)[C@@H](CO)O2)nn1
[13]
  AC50: 4.48 µM (active)
[14]
  AC50: > 39 µM (inactive)
